Measured values as given in US20230167121A1, “SUBSTITUTED {1,2,4,} TRIAZOLO{1,5-A} PYRIMIDINE COMPOUNDS AND USE IN STABILIZING MICROTUBULES” (THE TRUSTEES OF THE UNIVERSITY OF PENNSYLVANIA, priority 2020, published 2023).
Several values for one entry are separate records, joined by “and”; a condition that tells them apart may be missing. Identical values can stand only once. Counter-ions that a name gives are not always drawn. Like-named read-outs stand apart in the source and are kept apart here.

Assays:
MTs [1] = conditions: versus vincristine, taxol, colchicine; cited from earlier work
B/P of Table 4 = conditions: in vivo
total α-tubulin = experiment: cell-based assay of MT-stabilization: total α-tubulin in QBI293 cell lysates by ELISA; conditions: QB1293 cells
Experimental: (§1) All test compounds were evaluated in a previously described cell-based assay of MT-stabilization (see Kovalevich, J., et al. (2016) Characterization of Brain-Penetrant Pyrimidine-Containing Molecules with Differential Microtubule-Stabilizing Activities Developed as Potential Therapeutic Agents for Alzheimer's Disease and Related Tauopathies. J Pharmacol Exp Ther 357, 432-450, incorporated herein by reference), in which compound-dependent changes in tubulin polymerization and total tubulin levels were determined after 4 h of incubation of QBI293 cells with 1 and 10 μM compound via quantification of acetylated α-tubulin and total tubulin in cell lysates by ELISA.
(§2) Novel C6 nitrile- and alkyne-substituted triazolopyrimidine examples that have improved in vitro activity relative to previously described examples, with the general structure depicted in Formula I. The activity of the novel C6-nitrile substituted compounds were tested in a previously described cellular assay of MT-stabilization (Kovalevich, J., et al. (2016)). As summarized in Table 2. below, eighteen examples were synthesized and tested. In all cases, these compounds were confirmed to be active Class I triazolopyrimidines. […] Table 2 provides fold-changes in acetylated α-tubulin and total α-tubulin levels in QB1293 cells after 4 h incubation with test compounds at either 1 or 10 μM. Data are expressed as the fold-change relative to vehicle-treated cells. *p<0.05 and **p<0.01 by one-way ANOVA.
(§3) Compounds produced according to the preceding synthetic schemes were for microtubule stabilization. Fold-changes in acetylated α-tubulin (AcTub) and α-tubulin (α-Tub) levels in QB1293 cells after 4 h incubation with test compounds at either 1 or 10 μM. Reported values for AcTub and α-Tub represent the fold-change over control (DMSO)-treated cells (*p<0.05 and **p<0.01 by one-way ANOVA); numbers in parentheses represent the fold-change of AcTub over positive control-treated cells (i.e., 100 nM of cevipabulin). Changes of +/−15% of control are deemed to be within the day-to-day assay variability and non-significant.

acetylated α-tubulin = experiment: cell-based assay of MT-stabilization: acetylated α-tubulin in QBI293 cell lysates by ELISA; conditions: QB1293 cells, *p<0.05, **p<0.01; for fold induction at 1 µM: QBI293
Experimental: as §1, §2, §3

MTs [2] = conditions: cited from earlier work
[3] = Plasma and brain compound determinations (LC-MS/MS); format: in vivo; conditions: CD1 mice, 2.5 mg/kg each, one hour after dosing; for concentration at 1 h / Kp at 1 h: CD1, mouse, 2.5 mg/kg
Experimental: CD1 mice (n=3) were dosed concurrently with CNDR-51990 and CNDR-51993 (representing a 1:1 mixture of two diastereoisomers, 52017 (67) and 52016 (68)) at 2.5 mg/kg each). One hour after dosing, mice were euthanized and blood collected, followed by perfusion with saline. Mouse brains were homogenized in 10 mM ammonium acetate, pH 5.7 (1:2; w/v) using a handheld sonic homogenizer. Mouse plasma was obtained from blood that was collected into a 1.5 ml tube containing 0.5M EDTA solution and which was centrifuged for 10 minutes at 4500 g at 4° C. Aliquots (50 μl) of brain homogenates or plasma were mixed with 0.2 ml of acetonitrile, centrifuged at 15,000×g, and the resulting supernatant was used for subsequent LC-MS/MS analysis. The LC-MS/MS analysis was conducted by Inotiv, Inc., utilizing methods essentially as previously described (Lou et al., J. Med. Chem. 57:6116-27, 2014).

[4] = QBI293, 4 h, Table 4, 4 h, 1 μM, read-out: α-Tub l μM (fold-change over control (DMSO)-treated cells)
[5] = QBI293, 4 h, Table 4, 4 h, 10 μM, read-out: α-Tub 10 μM (fold-change over control (DMSO)-treated cells)
[6] = QBI293, 4 h, 4 h incubation, 1 μM compound, relative to vehicle-treated cells, read-out: α-Tub 1 μM (fold-change in total α-tubulin)
[7] = QBI293, 4 h, 4 h incubation, 10 μM compound, relative to vehicle-treated cells, read-out: α-Tub 10 μM (fold-change in total α-tubulin)
[8] = Table 4, 4 h, 1 μM, read-out: AcTub 1 μM (fold-change over control (DMSO)-treated cells)
[9] = dosed concurrently, individual animals 1-3, listed as 51990 (70)
[10] = 4 h incubation, 1 μM compound, relative to vehicle-treated cells, read-out: AcTub l μM (fold-change in acetylated α-tubulin)

Row | SMILES | Kp (B/P of Table 4) | fold induction at 1 µM (total α-tubulin; [4]) | fold induction at 10 µM (total α-tubulin; [5]) | fold induction at 1 µM (total α-tubulin; [6]) | fold induction at 10 µM (total α-tubulin; [7]) | other results
1 | CNCCCOc1cc(F)c(-c2c(Cl)nc3ncnn3c2N[C@@H](C)C(F)(F)F)c(F)c1 [Cevipabulin] |  |  |  |  |  | competition for binding to MTs (MTs [1]): competes with vincristine but not taxol or colchicine
2 | C[C@@H](Nc1c(-c2c(F)cc(C#CCCO)cc2F)c(Cl)nc2ncnn12)C(C)(C)C [TAL-600, (R)-4-(4-(5-chloro-7-((3,3-dimethylbutan-2-yl)amino)-[1,2,4]triazolo[1,5-a]pyrimidin-6-yl)-3,5-difluorophenyl)but-3-yn-1-ol] | 0.47 | 0.98 | 0.98 |  |  | 
3 | CC(C)[C@@H](C)Nc1c(-c2c(F)cc(C#CCCO)cc2F)c(Cl)nc2ncnn12 [TAL-598, (R)-4-(4-(5-chloro-7-((3-methylbutan-2-yl)amino)-[1,2,4]triazolo[1,5-a]pyrimidin-6-yl)-3,5-difluorophenyl)but-3-yn-1-ol] | 0.44 | 0.92 |  |  |  | 
4 | CC(C)[C@@H](C)Nc1c(-c2ccc(C#N)cc2F)c(Cl)nc2ncnn12 [Compound 67, (R)-4-(5-chloro-7-((3-methylbutan-2-yl)amino)-[1,2,4]triazolo[1,5-a]pyrimidin-6-yl)-3-fluorobenzonitrile] |  |  |  | 0.99 | 0.93 | AcTub l μM (fold-change in acetylated α-tubulin) (acetylated α-tubulin; 4 h incubation, 1 μM compound, relative to vehicle-treated cells, listed as 52017 (67)): 2.79 +/− 1.11 fold-change
5 | C[C@@H](Nc1c(-c2c(F)cc(C#CCCN)cc2F)c(Cl)nc2ncnn12)C(C)(C)C [TAL-580, (R)-6-(4-(4-aminobut-1-yn-1-yl)-2,6-difluorophenyl)-5-chloro-N-(3,3-dimethylbutan-2-yl)-[1,2,4]triazolo[1,5-a]pyrimidin-7-amine hydrochloride] | 1.04 | 0.96 | 0.91 |  |  | 
6 | C[C@@H](Nc1c(-c2c(F)cc(C#CCN(C)C)cc2F)c(Cl)nc2ncnn12)C(C)(C)C [TAL-555, (R)-5-chloro-6-(4-(3-(dimethylamino)prop-1-yn-1-yl)-2,6-difluorophenyl)-N-(3,3-dimethylbutan-2-yl)-[1,2,4]triazolo[1,5-a]pyrimidin-7-amine] |  |  |  |  |  | fold induction at 1 µM (acetylated α-tubulin; [8]): 1.36; fold induction at 1 µM (total α-tubulin; QBI293, Table 4, 4 h, 1 μM, read-out: α-Tub l μM (fold-change over control (DMSO)-treated cells)): 1; fold induction at 10 µM (total α-tubulin; QBI293, Table 4, 4 h, 10 μM, read-out: α-Tub 10 μM (fold-change over control (DMSO)-treated cells)): 0.84
7 | CO[C@H]1C[C@H]2CC[C@@H](C1)N2c1c(-c2c(F)cc(F)cc2F)c(Cl)nc2ncnn12 [Compound 2] |  |  |  |  |  | binding to MTs / unpolymerized tubulin heterodimers (MTs [2]): binds exclusively to MTs and not to unpolymerized tubulin heterodimers
8 | Cc1nc2nc(Cl)c(-c3c(F)cc(C#CCCO)cc3F)c(N(C)[C@H](C)C(C)C)n2n1 [TAL-665, (R)-4-(4-(5-chloro-2-methyl-7-(methyl(3-methylbutan-2-yl)amino)-[1,2,4]triazolo[1,5-a]pyrimidin-6-yl)-3,5-difluorophenyl)but-3-yn-1-ol] |  | 0.91 | 0.96 |  |  | fold induction at 1 µM (acetylated α-tubulin; [8]): 1.05
9 | C[C@@H](Nc1c(-c2ccc(C#N)cc2F)c(Cl)nc2ncnn12)C(C)(C)C [Compound 70, (R)-4-(5-Chloro-7-((3,3-dimethylbutan-2-yl)amino)-[1,2,4]triazolo[1,5-a]pyrimidin-6-yl)-3-fluorobenzonitrile] |  |  |  | 0.86 | 0.93 | AcTub 10 μM (fold-change in acetylated α-tubulin) (acetylated α-tubulin; 4 h incubation, 10 μM compound, relative to vehicle-treated cells): 7.67 ± 0.70 fold-change; concentration at 1 h ([3]; brain, dosed concurrently, individual animals 1-3, read-out: Brain Concentration): 158 ng/g; concentration at 1 h ([3]; brain, dosed concurrently, mean, n=3, read-out: Brain Concentration, Mean): 183 ng/g; Kp at 1 h ([3]; brain, individual animals 1-3, read-out: Brain/Plasma): 0.9; Kp at 1 h ([3]; brain, mean, n=3, read-out: Brain/Plasma, Mean): 1.21; concentration at 1 h ([3]; plasma, dosed concurrently, individual animals 1-3, read-out: Plasma Concentration): 175 ng/mL; concentration at 1 h ([3]; plasma, dosed concurrently, mean, n=3, read-out: Plasma Concentration, Mean): 151 ng/mL; Brain Concentration [3, 9]: 186 ng/g and 206 ng/g; Plasma Concentration [3, 9]: 133 ng/mL and 146 ng/mL; Brain/Plasma ([3]; individual animals 1-3, listed as 51990 (70)): 1.40 and 1.41
10 | N#Cc1cc(F)c(-c2c(Cl)nc3ncnn3c2N2CCCCC2)c(F)c1 [Compound 73] |  |  |  | 1 | 1.07 | fold induction at 1 µM (acetylated α-tubulin; [10]): 1
11 | [2H]C([2H])(O)CC#Cc1cc(F)c(-c2c(Cl)nc3ncnn3c2N[C@H](C)C(C)(C)C)c(F)c1 [TAL-651, (R)-4-(4-(5-chloro-7-((3,3-dimethylbutan-2-yl)amino)-[1,2,4]triazolo[1,5-a]pyrimidin-6-yl)-3,5-difluorophenyl)but-3-yn-1,1-d2-1-ol] | 0.46 | 1.02 | 1.01 |  |  | 
12 | CC(C)[C@@H](Nc1c(-c2c(F)cc(C#N)cc2F)c(Cl)nc2ncnn12)C(F)(F)F [Compound 62, (R)-4-(5-chloro-7-((1,1,1-trifluoro-3-methylbutan-2-yl)amino)-[1,2,4]triazolo[1,5-a]pyrimidin-6-yl)-3,5-difluorobenzonitrile] |  |  |  | 1.02 | 1.01 | fold induction at 1 µM (acetylated α-tubulin; [10]): 0.99 ± 0.06
13 | CC(C)[C@@H](C)Nc1c(-c2c(F)cc(C#CCCCO)cc2F)c(Cl)nc2ncnn12 [TAL-599, (R)-5-(4-(5-chloro-7-((3-methylbutan-2-yl)amino)-[1,2,4]triazolo[1,5-a]pyrimidin-6-yl)-3,5-difluorophenyl)pent-4-yn-1-ol] |  | 1 |  |  |  | fold induction at 1 µM (acetylated α-tubulin; [8]): 2.6
